Laboratory results reported in the supplement of paper PMC10307832.

Assays:
Assay in all cases: relative viability (nuclei count vs DMSO), 5 days (fraction); higher = more cells survive
SGI-1776 + Lapatinib = compound: CN1CCC(CNc2ccc3ncc(-c4cccc(OC(F)(F)F)c4)n3n2)CC1 [SGI-1776] + CS(=O)(=O)CCNCc1ccc(-c2ccc3ncnc(Nc4ccc(OCc5cccc(F)c5)c(Cl)c4)c3c2)o1 [Lapatinib] (partner 2 µM)
Method in brief: (§1)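 Each reported value is a median over duplicate plates. It expresses relative viability: treated-well nuclei count divided by vehicle-well nuclei count. Lung cancer cell lines in 1536-well plates were dosed by pin tool a day after seeding, alone with one drug or with a fixed anchor-drug dose plus five library-drug doses (not always all listed) in √10 steps, and nuclei were counted after 5 days.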

Entinostat + Linsitinib = compound: Nc1ccccc1NC(=O)c1ccc(CNC(=O)OCc2cccnc2)cc1 [Entinostat] + C[C@]1(O)C[C@@H](c2nc(-c3ccc4ccc(-c5ccccc5)nc4c3)c3c(N)nccn32)C1 [Linsitinib] (partner 1 µM)
Method in brief: as §1

Entinostat + Navitoclax = compound: Nc1ccccc1NC(=O)c1ccc(CNC(=O)OCc2cccnc2)cc1 [Entinostat] + CC1(C)CCC(c2ccc(Cl)cc2)=C(CN2CCN(c3ccc(C(=O)NS(=O)(=O)c4ccc(N[C@H](CCN5CCOCC5)CSc5ccccc5)c(S(=O)(=O)C(F)(F)F)c4)cc3)CC2)C1 [Navitoclax] (partner 0.5 µM)
Method in brief: as §1

[1] = compound: C1COCCN1C2=NC(=NC3=C2OC4=C3C=CC=N4)C5=CC(=CC=C5)NC(=O)C6=CN=C(C=C6)N + CS(=O)(=O)N1CCN(Cc2cc3nc(-c4cccc5[nH]ncc45)nc(N4CCOCC4)c3s2)CC1 [Pictilisib] (partner 1 µM)
Method in brief: as §1

HCC-827
relative viability (SGI-1776 + Lapatinib; first compound 0.08 µM): 0.168
relative viability (SGI-1776 + Lapatinib; first compound 0.8 µM): 0.201
relative viability (SGI-1776 + Lapatinib; first compound 2.53 µM): 0.16
relative viability (SGI-1776 + Lapatinib; first compound 8 µM): 0.194
relative viability (Entinostat + Linsitinib; first compound 0.02 µM): 0.958
relative viability (Entinostat + Linsitinib; first compound 0.06325 µM): 0.883
relative viability (Entinostat + Linsitinib; first compound 0.2 µM): 0.722
relative viability (Entinostat + Linsitinib; first compound 0.6325 µM): 0.582
relative viability (Entinostat + Linsitinib; first compound 2 µM): 0.421
relative viability (Entinostat + Navitoclax; first compound 0.02 µM): 1.03
relative viability (Entinostat + Navitoclax; first compound 0.06325 µM): 0.93
relative viability (Entinostat + Navitoclax; first compound 0.2 µM): 0.812
relative viability (Entinostat + Navitoclax; first compound 0.6325 µM): 0.595
relative viability (Entinostat + Navitoclax; first compound 2 µM): 0.386
relative viability ([1]; first compound 0.02 µM): 0.99
relative viability ([1]; first compound 0.06325 µM): 1.1
relative viability ([1]; first compound 0.2 µM): 1.12
relative viability ([1]; first compound 0.6325 µM): 0.986
relative viability ([1]; first compound 2 µM): 0.935

ChaGo-K-1
relative viability (Entinostat + Navitoclax; first compound 0.02 µM): 1.23
relative viability (Entinostat + Navitoclax; first compound 0.06325 µM): 1.04
relative viability (Entinostat + Navitoclax; first compound 0.2 µM): 1.11
relative viability (Entinostat + Navitoclax; first compound 0.6325 µM): 0.783
relative viability (Entinostat + Navitoclax; first compound 2 µM): 0.679
relative viability ([1]; first compound 0.02 µM): 0.789
relative viability ([1]; first compound 0.06325 µM): 0.61
relative viability ([1]; first compound 0.2 µM): 0.547
relative viability ([1]; first compound 0.6325 µM): 0.633
relative viability ([1]; first compound 2 µM): 0.624

NCI-H2170
relative viability (SGI-1776 + Lapatinib; first compound 0.08 µM): 0.263
relative viability (SGI-1776 + Lapatinib; first compound 0.8 µM): 0.269
relative viability (SGI-1776 + Lapatinib; first compound 2.53 µM): 0.275
relative viability (SGI-1776 + Lapatinib; first compound 8 µM): 0.275
relative viability (Entinostat + Navitoclax; first compound 0.02 µM): 0.626
relative viability (Entinostat + Navitoclax; first compound 0.06325 µM): 0.553
relative viability (Entinostat + Navitoclax; first compound 0.2 µM): 0.502
relative viability (Entinostat + Navitoclax; first compound 0.6325 µM): 0.33
relative viability (Entinostat + Navitoclax; first compound 2 µM): 0.196
relative viability ([1]; first compound 0.02 µM): 0.328
relative viability ([1]; first compound 0.06325 µM): 0.316
relative viability ([1]; first compound 0.2 µM): 0.299
relative viability ([1]; first compound 0.6325 µM): 0.299
relative viability ([1]; first compound 2 µM): 0.304

NCI-H358
relative viability (SGI-1776 + Lapatinib; first compound 0.08 µM): 0.434
relative viability (SGI-1776 + Lapatinib; first compound 0.8 µM): 0.469
relative viability (SGI-1776 + Lapatinib; first compound 2.53 µM): 0.352
relative viability (SGI-1776 + Lapatinib; first compound 8 µM): 0.292
relative viability (Entinostat + Linsitinib; first compound 0.02 µM): 0.699
relative viability (Entinostat + Linsitinib; first compound 0.06325 µM): 0.905
relative viability (Entinostat + Linsitinib; first compound 0.2 µM): 0.934
relative viability (Entinostat + Linsitinib; first compound 0.6325 µM): 0.503
relative viability (Entinostat + Linsitinib; first compound 2 µM): 0.238
relative viability ([1]; first compound 0.02 µM): 0.287
relative viability ([1]; first compound 0.06325 µM): 0.302
relative viability ([1]; first compound 0.2 µM): 0.288
relative viability ([1]; first compound 0.6325 µM): 0.328
relative viability ([1]; first compound 2 µM): 0.296

LCLC-103H
relative viability (Entinostat + Linsitinib; first compound 0.02 µM): 1.07
relative viability (Entinostat + Linsitinib; first compound 0.06325 µM): 1.12
relative viability (Entinostat + Linsitinib; first compound 0.2 µM): 0.937
relative viability (Entinostat + Linsitinib; first compound 0.6325 µM): 0.931
relative viability (Entinostat + Linsitinib; first compound 2 µM): 0.715
relative viability ([1]; first compound 0.02 µM): 0.533
relative viability ([1]; first compound 0.06325 µM): 0.647
relative viability ([1]; first compound 0.2 µM): 0.555
relative viability ([1]; first compound 0.6325 µM): 0.678
relative viability ([1]; first compound 2 µM): 0.551

ABC-1
relative viability (SGI-1776 + Lapatinib; first compound 0.08 µM): 1.36
relative viability (SGI-1776 + Lapatinib; first compound 0.8 µM): 1.16
relative viability (SGI-1776 + Lapatinib; first compound 2.53 µM): 1.28
relative viability (SGI-1776 + Lapatinib; first compound 8 µM): 1.1
relative viability (Entinostat + Linsitinib; first compound 0.02 µM): 0.686
relative viability (Entinostat + Linsitinib; first compound 0.06325 µM): 0.992
relative viability (Entinostat + Linsitinib; first compound 0.2 µM): 0.807
relative viability (Entinostat + Linsitinib; first compound 0.6325 µM): 0.481
relative viability (Entinostat + Linsitinib; first compound 2 µM): 0.506
relative viability ([1]; first compound 0.02 µM): 0.711
relative viability ([1]; first compound 0.06325 µM): 0.717
relative viability ([1]; first compound 0.2 µM): 0.773
relative viability ([1]; first compound 0.6325 µM): 0.768
relative viability ([1]; first compound 2 µM): 0.609

NCI-H650
relative viability (SGI-1776 + Lapatinib; first compound 0.08 µM): 0.99
relative viability (SGI-1776 + Lapatinib; first compound 0.8 µM): 0.955
relative viability (SGI-1776 + Lapatinib; first compound 2.53 µM): 0.747
relative viability (SGI-1776 + Lapatinib; first compound 8 µM): 0.795
relative viability (Entinostat + Linsitinib; first compound 0.02 µM): 1.03
relative viability (Entinostat + Linsitinib; first compound 0.06325 µM): 1.16
relative viability (Entinostat + Linsitinib; first compound 0.2 µM): 0.902
relative viability (Entinostat + Linsitinib; first compound 0.6325 µM): 0.552
relative viability (Entinostat + Linsitinib; first compound 2 µM): 0.243
relative viability ([1]; first compound 0.02 µM): 0.948
relative viability ([1]; first compound 0.06325 µM): 0.947
relative viability ([1]; first compound 0.2 µM): 0.861
relative viability ([1]; first compound 0.6325 µM): 0.77
relative viability ([1]; first compound 2 µM): 0.741

NCI-H1563
relative viability (SGI-1776 + Lapatinib; first compound 0.08 µM): 0.869
relative viability (SGI-1776 + Lapatinib; first compound 0.8 µM): 0.939
relative viability (SGI-1776 + Lapatinib; first compound 2.53 µM): 1.02
relative viability (SGI-1776 + Lapatinib; first compound 8 µM): 0.825
relative viability (Entinostat + Linsitinib; first compound 0.02 µM): 1.14
relative viability (Entinostat + Linsitinib; first compound 0.06325 µM): 1.2
relative viability (Entinostat + Linsitinib; first compound 0.2 µM): 1.09
relative viability (Entinostat + Linsitinib; first compound 0.6325 µM): 0.897
relative viability (Entinostat + Linsitinib; first compound 2 µM): 0.769
relative viability ([1]; first compound 0.02 µM): 0.632
relative viability ([1]; first compound 0.06325 µM): 0.618
relative viability ([1]; first compound 0.2 µM): 0.622
relative viability ([1]; first compound 0.6325 µM): 0.626
relative viability ([1]; first compound 2 µM): 0.604

NCI-H1650
relative viability (SGI-1776 + Lapatinib; first compound 0.08 µM): 0.877
relative viability (SGI-1776 + Lapatinib; first compound 0.8 µM): 0.983
relative viability (SGI-1776 + Lapatinib; first compound 2.53 µM): 0.809
relative viability (SGI-1776 + Lapatinib; first compound 8 µM): 0.343
relative viability (Entinostat + Navitoclax; first compound 0.02 µM): 1.2
relative viability (Entinostat + Navitoclax; first compound 0.06325 µM): 1.28
relative viability (Entinostat + Navitoclax; first compound 0.2 µM): 1.1
relative viability (Entinostat + Navitoclax; first compound 0.6325 µM): 0.673
relative viability (Entinostat + Navitoclax; first compound 2 µM): 0.673
relative viability ([1]; first compound 0.02 µM): 0.505
relative viability ([1]; first compound 0.06325 µM): 0.588
relative viability ([1]; first compound 0.2 µM): 0.526
relative viability ([1]; first compound 0.6325 µM): 0.592
relative viability ([1]; first compound 2 µM): 0.483

NCI-H661
relative viability (SGI-1776 + Lapatinib; first compound 0.08 µM): 0.509
relative viability (SGI-1776 + Lapatinib; first compound 0.8 µM): 0.533
relative viability (SGI-1776 + Lapatinib; first compound 2.53 µM): 0.646
relative viability (SGI-1776 + Lapatinib; first compound 8 µM): 0.439
relative viability (Entinostat + Linsitinib; first compound 0.02 µM): 0.481
relative viability (Entinostat + Linsitinib; first compound 0.06325 µM): 0.769
relative viability (Entinostat + Linsitinib; first compound 0.2 µM): 0.678
relative viability (Entinostat + Linsitinib; first compound 0.6325 µM): 0.725
relative viability (Entinostat + Linsitinib; first compound 2 µM): 0.624
relative viability ([1]; first compound 0.02 µM): 0.441
relative viability ([1]; first compound 0.06325 µM): 0.395
relative viability ([1]; first compound 0.2 µM): 0.392
relative viability ([1]; first compound 0.6325 µM): 0.375
relative viability ([1]; first compound 2 µM): 0.163

NCI-H441
relative viability (Entinostat + Linsitinib; first compound 0.02 µM): 0.483
relative viability (Entinostat + Linsitinib; first compound 0.06325 µM): 0.494
relative viability (Entinostat + Linsitinib; first compound 0.2 µM): 0.524
relative viability (Entinostat + Linsitinib; first compound 0.6325 µM): 0.262
relative viability (Entinostat + Linsitinib; first compound 2 µM): 0.13
relative viability (Entinostat + Navitoclax; first compound 0.02 µM): 0.689
relative viability (Entinostat + Navitoclax; first compound 0.06325 µM): 0.505
relative viability (Entinostat + Navitoclax; first compound 0.2 µM): 0.632
relative viability (Entinostat + Navitoclax; first compound 0.6325 µM): 0.233
relative viability (Entinostat + Navitoclax; first compound 2 µM): 0.0467
relative viability ([1]; first compound 0.02 µM): 0.564
relative viability ([1]; first compound 0.06325 µM): 0.585
relative viability ([1]; first compound 0.2 µM): 0.427
relative viability ([1]; first compound 0.6325 µM): 0.447
relative viability ([1]; first compound 2 µM): 0.345
